What is called EC50 is the concentration needed to bring the measured effect to its halfway point.

For this assay, the system named is PC-3 cells. Put plainly: PC-3 Oxygen Rate Consumption (OCR) Assay. To be noted: Homo sapiens, 0.05 h, medium with 2% FBS, OCR at 3-min post-injection normalized to % increase over DMSO-treated cells, concentration for half-maximal OCR increase, read-out: EC50-PC3-OCR-FBS-3min. It is filed as cell-based. An outline of the steps:
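Oxygen consumption read on Seahorse XFe96: three basal measurements, then compound injection and 10 cycles over 30 min. EC50 defined as concentration giving half-maximal OCR rise, using 3-min post-injection values as % above DMSO controls, six replicates per treatment, in PC-3 cells in glucose/pyruvate medium.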
In the case of `N#CC1CCN(S(=O)(=O)Nc2ccc(C(F)(F)F)cc2C(=O)NC23CCC(C#N)(CC2)CC3)CC1` [Example 233, N-(4-cyanobicyclo[2.2.2]octan-1-yl)-2-((4-cyanopiperidine)-1-sulfonamido)-5-(trifluoromethyl)benzamide], the EC50 amounted to 4.79 µM. For `N#CC1CN(S(=O)(=O)Nc2ccc(C(F)(F)F)cc2C(=O)NC23CC(C(F)(F)F)(C2)C3)C1` [Example 234, 2-((3-cyanoazetidine)-1-sulfonamido)-5-(trifluoromethyl)-N-(3-(trifluoromethyl)bicyclo[1.1.1]pentan-1-yl)benzamide] the value was 3.86 µM. For `CS(=O)(=O)Nc1ccc(SC(F)(F)F)cc1C(=O)NC12CCC(C#N)(CC1)CC2` [Example 235, N-(4-cyanobicyclo[2.2.2]octan-1-yl)-2-(methylsulfonamido)-5-((trifluoromethyl)thio)benzamide] the value was 4.53 µM.

With `CN(C)S(=O)(=O)Nc1cc(F)c(F)cc1C(=O)NC12CCC(C#N)(CC1)CC2` [Example 236, N-(4-cyanobicyclo[2.2.2]octan-1-yl)-2-((N,N-dimethylsulfamoyl)amino)-4,5-difluorobenzamide], the EC50 came out at 25.2 µM. For `O=C(NC12CCC(C(F)(F)F)(CC1)CC2)c1cc(SC(F)(F)F)ccc1NS(=O)(=O)N1CCS(=O)(=O)CC1` [Example 237, 2-((1,1-dioxidothiomorpholine)-4-sulfonamido)-N-(4-(trifluoromethyl)bicyclo[2.2.2]octan-1-yl)-5-((trifluoromethyl)thio)benzamide] the value was 7.73 µM. For `O=C(NC12CCC(C(F)(F)F)(CC1)CC2)c1ccc(F)cc1NS(=O)(=O)C1CCS(=O)(=O)CC1` [Example 238, 2-((1,1-dioxidotetrahydro-2H-thiopyran)-4-sulfonamido)-4-fluoro-N-(4-(trifluoromethyl)bicyclo[2.2.2]octan-1-yl)benzamide] the value was 29.7 µM; for `O=C(NC12CCC(C(F)(F)F)(CC1)CC2)c1cc(C(F)(F)F)ccc1NS(=O)(=O)C1CCS(=O)(=O)CC1` [Example 239, 2-((1,1-dioxidotetrahydro-2H-thiopyran)-4-sulfonamido)-5-(trifluoromethyl)-N-(4-(trifluoromethyl)bicyclo[2.2.2]octan-1-yl)benzamide], 7.73 µM; for `O=C(NC12CCC(C(F)(F)F)(CC1)CC2)c1ccc(OC(F)(F)F)cc1NS(=O)(=O)C1CCS(=O)(=O)CC1` [Example 240, 2-((1,1-dioxidotetrahydro-2H-thiopyran)-4-sulfonamido)-4-(trifluoromethoxy)-N-(4-(trifluoromethyl)bicyclo[2.2.2]octan-1-yl)benzamide], 3.01 µM. For `O=C(NC12CCC(C(F)(F)F)(CC1)CC2)c1ccc(Cl)cc1NS(=O)(=O)C1CCS(=O)(=O)CC1` [Example 241, 4-chloro-2-((1,1-dioxidotetrahydro-2H-thiopyran)-4-sulfonamido)-N-(4-(trifluoromethyl)bicyclo[2.2.2]octan-1-yl)benzamide] the value was 6.38 µM; for `N#CC1(S(=O)(=O)Nc2ccc(F)cc2C(=O)NC23CC(C(F)(F)F)(C2)C3)CC1` [Example 242, 2-((1-cyanocyclopropane)-1-sulfonamido)-5-fluoro-N-(3-(trifluoromethyl)bicyclo[1.1.1]pentan-1-yl)benzamide], 4.34 µM; for `CS(=O)(=O)Nc1ccc(SC(F)(F)F)cc1C(=O)NC12CC(C#N)(C1)C2` [Example 243, N-(3-cyanobicyclo[1.1.1]pentan-1-yl)-2-(methylsulfonamido)-5-((trifluoromethyl)thio)benzamide], 6.14 µM. For `CN(C)S(=O)(=O)Nc1ccc(C(F)(F)F)cc1C(=O)NC12CC(C#N)(C1)C2` [Example 244, N-(3-cyanobicyclo[1.1.1]pentan-1-yl)-2-((N,N-dimethylsulfamoyl)amino)-5-(trifluoromethyl)benzamide], the 50% effective concentration (EC50) was found to be 7.65 µM.

`O=C(NC12CC(C(F)(F)F)(C1)C2)c1ccc(OC(F)(F)F)cc1NS(=O)(=O)N1CCS(=O)(=O)CC1` [Example 245, 2-((1,1-dioxidothiomorpholine)-4-sulfonamido)-4-(trifluoromethoxy)-N-(3-(trifluoromethyl)bicyclo[1.1.1]pentan-1-yl)benzamide]: the 50% effective concentration (EC50) turned out to be 3.84 µM.

Consider `CS(=O)(=O)N1C2CCC1CN(S(=O)(=O)Nc1ccc(C(F)(F)F)cc1C(=O)NC13CCC(C#N)(CC1)CC3)C2` [Example 246, N-(4-cyanobicyclo[2.2.2]octan-1-yl)-2-(((1R,5S)-8-(methylsulfonyl)-3,8-diazabicyclo[3.2.1]octane)-3-sulfonamido)-5-(trifluoromethyl)benzamide], for which the EC50 came out at 14.5 µM. For `N#Cc1ccc(C(=O)NC23CC(C(F)(F)F)(C2)C3)c(NS(=O)(=O)N2CCC2)c1` [Example 247, 2-(azetidine-1-sulfonamido)-4-cyano-N-(3-(trifluoromethyl)bicyclo[1.1.1]pentan-1-yl)benzamide] the value was 4.79 µM; for `CS(=O)(=O)CCS(=O)(=O)Nc1cc(OC(F)(F)F)ccc1C(=O)NC12CCC(C(F)(F)F)(CC1)CC2` [Example 248, 2-((2-(methylsulfonyl)ethyl)sulfonamido)-4-(trifluoromethoxy)-N-(4-(trifluoromethyl)bicyclo[2.2.2]octan-1-yl)benzamide], 5.7 µM.

(Values after US12049439B2 (OrsoBio, Inc., priority 2018, dated 2024).)
